{
  "source": "ChEMBL document CHEMBL1126672",
  "about": "“1,3-dioxolanylpurine nucleosides (2R,4R) and (2R,4S) with selective anti-HIV-1 activity in human lymphocytes” (J Med Chem, 1993)",
  "key": {"CCRF-CEM [1]": {"test_system": "CCRF-CEM", "assay": "Cytotoxicity against uninfected PHA-stimulated CEM cells was determined.", "assay_type": "cell-based", "settings": "Homo sapiens"}, "[2]": {"assay": "Antiviral activity was evaluated in mitogen-stimulated human peripheral blood mononuclear (PBM) cells infected with HIV-1 strain LAV.", "assay_type": "functional"}, "[3]": {"assay": "Cytotoxicity against uninfected PHA-stimulated human peripheral blood mononuclear (PBM) cells was determined.", "assay_type": "cell-based"}, "Vero [4]": {"test_system": "Vero", "assay": "Cytotoxicity against uninfected PHA-stimulated vero cells was determined", "assay_type": "cell-based", "settings": "Chlorocebus sabaeus"}, "CCRF-CEM [5]": {"test_system": "CCRF-CEM", "assay": "Cytotoxicity against uninfected PHA-stimulated CEM cells was determined", "assay_type": "cell-based", "settings": "Homo sapiens"}, "[6]": {"assay": "Antiviral activity was evaluated in mitogen-stimulated human peripheral blood mononuclear (PBM) cells infected with HIV-1 strain LAV", "assay_type": "functional"}, "[7]": {"assay": "Cytotoxicity against uninfected PHA-stimulated human peripheral blood mononuclear (PBM) cells was determined", "assay_type": "cell-based"}, "Vero [8]": {"test_system": "Vero", "assay": "Cytotoxicity against uninfected PHA-stimulated vero cells was determined.", "assay_type": "cell-based", "settings": "Chlorocebus sabaeus"}},
  "data": [
    {"smiles": "Cc1cn([C@H]2C[C@H](N=[N+]=[N-])[C@@H](CO)O2)c(=O)[nH]c1=O", "note": "[ZIDOVUDINE]", "values": [
      {"measurement": "IC50", "setting": "CCRF-CEM [1]", "result": 30.9, "unit": "µM"},
      {"measurement": "EC50", "setting": "[2]", "result": 0.004, "unit": "µM"},
      {"measurement": "IC50", "setting": "[3]", "result": "> 100", "unit": "µM"}
    ]},
    {"smiles": "Nc1nc2c(ncn2[C@H]2CO[C@@H](CO)O2)c(=O)[nH]1", "values": [
      {"measurement": "IC50", "setting": "Vero [4]", "result": "> 100", "unit": "µM"},
      {"measurement": "IC50", "setting": "CCRF-CEM [5]", "result": "> 100", "unit": "µM"},
      {"measurement": "EC50", "setting": "[6]", "result": 0.03, "unit": "µM"},
      {"measurement": "IC50", "setting": "[7]", "result": "> 100", "unit": "µM"}
    ]},
    {"smiles": "OC[C@@H]1OC[C@H](n2cnc3c(Cl)ncnc32)O1", "values": [
      {"measurement": "IC50", "setting": "Vero [8]", "result": "> 100", "unit": "µM"},
      {"measurement": "IC50", "setting": "CCRF-CEM [1]", "result": "> 100", "unit": "µM"},
      {"measurement": "EC50", "setting": "[2]", "result": 22.8, "unit": "µM"},
      {"measurement": "IC50", "setting": "[3]", "result": "> 100", "unit": "µM"}
    ]},
    {"smiles": "CNc1nc(Cl)nc2c1ncn2[C@H]1CO[C@@H](CO)O1", "values": [
      {"measurement": "IC50", "setting": "Vero [8]", "result": "> 100", "unit": "µM"},
      {"measurement": "IC50", "setting": "CCRF-CEM [1]", "result": "> 100", "unit": "µM"},
      {"measurement": "EC50", "setting": "[2]", "result": 40, "unit": "µM"},
      {"measurement": "IC50", "setting": "[3]", "result": "> 100", "unit": "µM"}
    ]},
    {"smiles": "Nc1nc(Cl)nc2c1ncn2[C@@H]1CO[C@@H](CO)O1", "values": [
      {"measurement": "IC50", "setting": "Vero [8]", "result": "> 100", "unit": "µM"},
      {"measurement": "IC50", "setting": "CCRF-CEM [1]", "result": "> 100", "unit": "µM"},
      {"measurement": "EC50", "setting": "[2]", "result": 39.9, "unit": "µM"},
      {"measurement": "IC50", "setting": "[3]", "result": "> 100", "unit": "µM"}
    ]},
    {"smiles": "Nc1nc(Cl)nc2c1ncn2[C@H]1CO[C@@H](CO)O1", "values": [
      {"measurement": "IC50", "setting": "Vero [8]", "result": "> 100", "unit": "µM"},
      {"measurement": "IC50", "setting": "CCRF-CEM [1]", "result": "> 100", "unit": "µM"},
      {"measurement": "EC50", "setting": "[2]", "result": 1.7, "unit": "µM"},
      {"measurement": "IC50", "setting": "[3]", "result": "> 100", "unit": "µM"}
    ]},
    {"smiles": "CSc1ncnc2c1ncn2[C@H]1CO[C@@H](CO)O1", "values": [
      {"measurement": "IC50", "setting": "Vero [4]", "result": "> 100", "unit": "µM"},
      {"measurement": "IC50", "setting": "CCRF-CEM [5]", "result": "> 100", "unit": "µM"},
      {"measurement": "EC50", "setting": "[6]", "result": 25.1, "unit": "µM"},
      {"measurement": "IC50", "setting": "[7]", "result": "> 100", "unit": "µM"}
    ]},
    {"smiles": "OC[C@@H]1OC[C@H](n2cnc3c(S)ncnc32)O1", "values": [
      {"measurement": "IC50", "setting": "Vero [8]", "result": "> 100", "unit": "µM"},
      {"measurement": "IC50", "setting": "CCRF-CEM [1]", "result": "> 100", "unit": "µM"},
      {"measurement": "EC50", "setting": "[2]", "result": 26.5, "unit": "µM"},
      {"measurement": "IC50", "setting": "[3]", "result": "> 100", "unit": "µM"}
    ]},
    {"smiles": "OC[C@@H]1OC[C@@H](n2cnc3c(Cl)ncnc32)O1", "values": [
      {"measurement": "IC50", "setting": "Vero [8]", "result": "> 100", "unit": "µM"},
      {"measurement": "IC50", "setting": "CCRF-CEM [1]", "result": 57.6, "unit": "µM"},
      {"measurement": "EC50", "setting": "[2]", "result": 11.1, "unit": "µM"},
      {"measurement": "IC50", "setting": "[3]", "result": "> 100", "unit": "µM"}
    ]}
  ]
}
